Patent publication US20260151457A1, “Peptides and Fragments for Treating Diabetes and Associated Metabolic Diseases” (Betavive Ltd., priority 2024, published 2026)
Where no end group is shown, it is not given here.

Legend:
β-MIN6 cells = assay: Insulin secretion of β-MIN6 cells following glucose induction; format: cell-based, mouse; conditions: IGF-2 5 nM, 20 nM, 80 nM, 1 week treatment
Description: β-MIN6 cells serve as an in vitro model of mouse pancreatic islets. β-MIN6 cells were used as an in vitro model to measure the effects of treatment with IGF-2.

STZ-treated mouse islets [1] = assay: MTT viability of STZ-treated mouse islets; format: cell-based; conditions: increasing concentrations
Description: Yellow dye MTT is converted to a purple dye by mitochondrial reductase in viable cells. Therefore, the amount of purple dye present determined by measuring optical density of cells at 570 nm serves as a measurement of cell viability.

STZ-treated mouse islets [2] = assay: Insulin secretion from STZ-treated mouse islets; format: cell-based; conditions: islets treated with 2.5 mM STZ; IGF-2 50 nM and 500 nM, GLP-1 100 nM and 1000 nM; 48 hours
Protocol: Mouse islet cells were treated with 2.5 mM STZ and subsequently treated with either IGF-2 (FA) at 50 nM and 500 nM, or with GLP-1 at 100 nM and 1000 nM.

db/db mice = assay: Peptide efficacy on type 2 diabetes (db/db mice): pancreas H&E and IHC; format: in vivo
Protocol: Male db/db mice (BKS.Cg-Dock7m+/+Leprdb/J) were administered Peptide 16 and Peptide 20 via intraperitoneal injection once daily for 35 consecutive days. Peptide 16 was administered at a dose of 5.5 mg/kg, while Peptide 20 was administered at 3.9 mg/kg. The control group received saline. Throughout the treatment period, mice were monitored for body weight and behavioral changes. At the end of the study, mice were sacrificed, and blood samples were collected for C-peptide level measurement. The pancreas was harvested for pathological analysis, including hematoxylin and eosin (H&E) staining and immunohistochemistry (IHC). Results appear in FIG. 37. All pancreatic tissue sections were stained with hematoxylin and eosin (H&E). […] Results appear in FIG. 38.

Human pancreatic islets = assay: Peptides efficacy on human pancreatic islets (IHC, digital quantitative pathological analysis); format: cell-based
Protocol: Human pancreatic islets, obtained from Prodo Labs, were cultured in Prodo Labs PIM(S) media and maintained at 37° C. with 5% CO2 to ensure optimal viability. The islets were treated with IGF-2 (500 nM) and Peptide-20 (1000 nM) for five days under continuous exposure. After treatment, islets were collected and fixed in 4% paraformaldehyde (PFA) to preserve cellular and structural integrity. The samples were then processed for formalin-fixed paraffin-embedded (FFPE) histology. Sectioned islets were stained using immunohistochemistry (IHC) with specific markers to assess islet integrity, β-cell function, and proliferation. Microscopic Digital Quantitative Pathological Analysis provided critical insights into the effects of IGF-2 and Peptide-20 on islet structure and function. […] These findings establish Peptide-20 as a strong candidate for novel diabetes therapies aimed at restoring islet function and reversing β-cell loss. […] Their ability to enhance β-cell survival and proliferation positions them as strong candidates for the development of novel regenerative therapies, paving the way for innovative drug development aimed at reversing diabetes and restoring endogenous insulin production.

mice = assay: Blood glucose concentration kinetics of IGF-2 vs. insulin in a glucose tolerance test; format: in vivo
Protocol: IGF-2 therefore provides an effect that mimics insulin within the body, and that effect is referred to herein as an “insulinomimetic” effect. […] More specifically, when 1 unit of insulin per kg was administered, the recovery in glucose levels began after two hours. But when 800 μg/kg of IGF-2 was administered, the recovery in glucose levels began after six hours. […] In this example, administering IGF-2 can provide better results than administering insulin with respect to blood glucose levels, even when only a single dose was used. Without being bound by this theory, it is possible that the IGF-2 combines with a number of binding proteins in the blood and its active free form is then released slowly from the complex.

[3] = Peptide-20 1000 nM for five days

GLP-1 (HAEGTFTSDVSSYLEGQAAKEFIAWLVKGR; ends and bridges not checked; UniProt P01275 98-127, looked up) [a satiety hormone, comparator in vitro, reference compound]
Insulin secretion following glucose induction (β-MIN6 cells): does not increase insulin secretion | Mouse islet viability (MTT, optical density at 570 nm) (STZ-treated mouse islets [1]): did not significantly increase mouse islet viability | Insulin secretion (STZ-treated mouse islets [2]): did not significantly increase insulin secretion

RSRGIVEECCFRICDLALLE [Peptide 20]
Islets of Langerhans in the pancreas (IHC) (db/db mice; Peptide 20 3.9 mg/kg i.p. once daily for 35 days): regenerating the islets of Langerhans | Islets of Langerhans in pancreatic tissue sections (H&E) (db/db mice; i.p. once daily for 35 days, Peptide 16 5.5 mg/kg, Peptide 20 3.9 mg/kg): regenerating the islets of Langerhans | Pancreatic islet regeneration, integrity and function (Human pancreatic islets; IGF-2 500 nM, Peptide-20 1000 nM, five days): enhances human pancreatic islet regeneration and function | Islet area (Human pancreatic islets; [3]): significant increase | Total insulin signal intensity (Human pancreatic islets; [3]): significant increase | β-cell proliferation (Human pancreatic islets; [3]): significant increase

insulin [reference compound]
Glucose level after administration (mice; glucose tolerance test in mice): decreased | Time after which the recovery in glucose levels began (mice; insulin 1 unit per kg, IGF-2 800 μg/kg, single dose): two
